Reference: ChEMBL document CHEMBL3877331, “Affinity-Based Selectivity Profiling of an In-Class Selective Competitive Inhibitor of Acyl Protein Thioesterase 2” (ACS Med Chem Lett, 2017)
pIC50, pKi: −log10 of the molar value. Activity calls are given as the source filed them. The calls are words filed in the database; no cut-off is given here.

What was measured:
[1] = target: T1, Acyl-protein thioesterase 2 (Homo sapiens, UniProt O95372); assay: Competitive inhibition of HEK293T cells-derived His-tagged APT2 expressed in Escherichia coli BL21(DE3) preincubated for 30 mins followed by substrate addition by resorufin dye based acetate hydrolysis assay; parameters: species or system HEK-293T
T1 sequence (O95372 whole entry): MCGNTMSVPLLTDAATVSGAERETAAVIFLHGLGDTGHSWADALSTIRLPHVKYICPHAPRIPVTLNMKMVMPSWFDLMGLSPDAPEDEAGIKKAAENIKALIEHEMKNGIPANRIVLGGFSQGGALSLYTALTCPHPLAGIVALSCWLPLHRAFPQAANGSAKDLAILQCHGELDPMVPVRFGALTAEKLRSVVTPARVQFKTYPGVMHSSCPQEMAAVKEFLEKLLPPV

[2] = target: FAD synthase (Homo sapiens) (UniProt Q8NFF5); assay: Binding affinity to FAD1 in HEK293T cells at 50 uM incubated for 1 hr by mass spectrometry analysis relative to azide-PEG3-biotin; assay type: cell-based; conditions: HEK-293T
Chain of FAD synthase (Homo sapiens) (Q8NFF5 whole entry): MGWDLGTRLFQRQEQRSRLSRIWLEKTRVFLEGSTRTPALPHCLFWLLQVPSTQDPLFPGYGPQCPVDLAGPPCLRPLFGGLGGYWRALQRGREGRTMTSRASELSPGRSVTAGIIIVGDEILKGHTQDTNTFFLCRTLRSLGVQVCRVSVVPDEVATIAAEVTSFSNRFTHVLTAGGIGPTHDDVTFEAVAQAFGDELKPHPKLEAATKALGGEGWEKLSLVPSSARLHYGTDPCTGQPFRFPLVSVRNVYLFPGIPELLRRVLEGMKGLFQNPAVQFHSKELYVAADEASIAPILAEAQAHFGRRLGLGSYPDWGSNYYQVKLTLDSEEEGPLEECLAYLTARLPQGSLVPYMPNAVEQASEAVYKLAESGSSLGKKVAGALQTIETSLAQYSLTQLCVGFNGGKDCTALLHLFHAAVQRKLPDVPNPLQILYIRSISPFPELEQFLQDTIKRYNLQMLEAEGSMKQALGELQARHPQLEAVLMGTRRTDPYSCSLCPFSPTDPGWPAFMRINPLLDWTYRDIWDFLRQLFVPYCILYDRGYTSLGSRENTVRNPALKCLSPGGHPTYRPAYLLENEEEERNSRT

[3] = target: T2, Ribosyldihydronicotinamide dehydrogenase [quinone] (Homo sapiens) (UniProt P16083); assay: Binding affinity to NQO2 in HEK293T cells at 50 uM incubated for 1 hr by mass spectrometry analysis relative to azide-PEG3-biotin; assay type: cell-based; conditions: HEK-293T
T2 sequence (whole entry): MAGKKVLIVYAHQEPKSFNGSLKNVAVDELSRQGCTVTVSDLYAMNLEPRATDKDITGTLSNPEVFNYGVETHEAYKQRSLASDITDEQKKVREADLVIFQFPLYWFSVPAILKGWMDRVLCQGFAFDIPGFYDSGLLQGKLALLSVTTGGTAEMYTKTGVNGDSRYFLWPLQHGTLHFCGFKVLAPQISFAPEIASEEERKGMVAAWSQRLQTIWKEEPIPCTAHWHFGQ

[4] = target: T1, Acyl-protein thioesterase 2; assay: Binding affinity to APT2 in HEK293T cells at 50 uM preincubated for 1 hr followed by FP-TAMRA labeling by in-gel fluorescence assay; assay type: cell-based; conditions: HEK-293T
[5] = target: FAD synthase (Homo sapiens) (UniProt Q8NFF5); assay: Binding affinity to FAD1 in HEK293T cells at 50 uM incubated for 1 hr by mass spectrometry analysis relative to o-ML349-biotin; assay type: cell-based; conditions: HEK-293T
[6] = target: Deoxycytidine kinase (Homo sapiens) (UniProt P27707); assay: Binding affinity to DCK in HEK293T cells at 50 uM incubated for 1 hr by mass spectrometry analysis relative to o-ML349-biotin; assay type: cell-based; conditions: HEK-293T
Chain of Deoxycytidine kinase (Homo sapiens) (P27707 whole entry, looked up): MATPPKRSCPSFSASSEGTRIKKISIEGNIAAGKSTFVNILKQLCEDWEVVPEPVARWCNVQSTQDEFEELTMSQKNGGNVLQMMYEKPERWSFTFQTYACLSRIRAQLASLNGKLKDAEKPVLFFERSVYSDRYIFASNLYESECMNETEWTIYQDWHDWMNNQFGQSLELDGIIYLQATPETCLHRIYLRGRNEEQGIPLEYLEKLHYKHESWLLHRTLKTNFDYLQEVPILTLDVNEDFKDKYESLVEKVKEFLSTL

MDCK = assay: Binding affinity to APT2 in MDCK cells at 50 uM incubated for 1 hr by mass spectrometry analysis; assay type: cell-based; conditions: Canis lupus familiaris
[7] = target: T2, Ribosyldihydronicotinamide dehydrogenase [quinone] (Homo sapiens); assay: Binding affinity to NQO2 in HEK293T cells at 50 uM incubated for 1 hr by mass spectrometry analysis relative to o-ML349-biotin; assay type: cell-based; conditions: HEK-293T
[8] = target: Adenosine kinase (Homo sapiens) (UniProt P55263); assay: Binding affinity to ADK in HEK293T cells at 50 uM incubated for 1 hr by mass spectrometry analysis relative to o-ML349-biotin; assay type: cell-based; conditions: HEK-293T
Chain of Adenosine kinase (Homo sapiens) (P55263 2-362 limits assumed): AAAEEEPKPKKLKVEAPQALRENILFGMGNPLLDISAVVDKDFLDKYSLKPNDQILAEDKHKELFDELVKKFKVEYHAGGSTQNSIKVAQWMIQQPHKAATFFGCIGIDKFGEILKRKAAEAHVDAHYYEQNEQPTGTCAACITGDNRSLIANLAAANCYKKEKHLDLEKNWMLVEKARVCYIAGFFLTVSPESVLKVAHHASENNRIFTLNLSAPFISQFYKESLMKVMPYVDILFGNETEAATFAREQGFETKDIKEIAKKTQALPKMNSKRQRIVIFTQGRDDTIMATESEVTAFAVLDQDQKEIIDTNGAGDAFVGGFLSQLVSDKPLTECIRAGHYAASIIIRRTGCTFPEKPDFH

[9] = target: T3, Pyridoxal kinase (Homo sapiens) (UniProt O00764); assay: Binding affinity to PDXK in HEK293T cells at 50 uM incubated for 1 hr by mass spectrometry analysis relative to o-ML349-biotin; assay type: cell-based; conditions: HEK-293T
T3 sequence (whole entry): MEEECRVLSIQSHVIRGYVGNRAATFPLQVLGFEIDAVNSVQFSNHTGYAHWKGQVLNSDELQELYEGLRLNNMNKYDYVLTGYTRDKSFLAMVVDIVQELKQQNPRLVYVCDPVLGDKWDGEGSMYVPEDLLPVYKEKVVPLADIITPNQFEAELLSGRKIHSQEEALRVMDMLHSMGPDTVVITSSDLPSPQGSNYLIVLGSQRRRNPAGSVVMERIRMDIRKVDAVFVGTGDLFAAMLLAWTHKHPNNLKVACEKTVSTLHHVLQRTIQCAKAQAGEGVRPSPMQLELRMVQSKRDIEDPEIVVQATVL

[10] = target: T1, Acyl-protein thioesterase 2; assay: Binding affinity to APT2 in HEK293T cells at 50 uM incubated for 1 hr by mass spectrometry analysis relative to azide-PEG3-biotin; assay type: cell-based; conditions: HEK-293T
Pyridoxal kinase = target: T4, Pyridoxal kinase (Homo sapiens, UniProt O00764); assay: Inhibition of fluorescein-labeled ML349 binding to HEK293T cells-derived His-tagged PDXK expressed in Escherichia coli BL21(DE3) after 30 mins by fluorescence polarization assay; parameters: species or system HEK-293T
T4 sequence (O00764 whole entry): T3 sequence (whole entry)

[11] = target: T3, Pyridoxal kinase (Homo sapiens); assay: Binding affinity to HEK293T cells-derived His-tagged PDXK expressed in Escherichia coli BL21(DE3) assessed as stoichiometric complex formation at 10 uM after 5 mins by electrospray ionization native mass spectrometry; conditions: HEK-293T
[12] = target: T1, Acyl-protein thioesterase 2; assay: Binding affinity to APT2 in HEK293T cells at 50 uM incubated for 1 hr by mass spectrometry analysis relative to o-ML349-biotin; assay type: cell-based; conditions: HEK-293T
[13] = target: T1, Acyl-protein thioesterase 2; assay: Inhibition of fluorescein-labeled ML349 binding to HEK293T cells-derived His-tagged APT2 expressed in Escherichia coli BL21(DE3) after 30 mins by fluorescence polarization assay; parameters: species or system HEK-293T
[14] = target: T3, Pyridoxal kinase (Homo sapiens); assay: Binding affinity to PDXK in HEK293T cells at 50 uM incubated for 1 hr by mass spectrometry analysis relative to azide-PEG3-biotin; assay type: cell-based; conditions: HEK-293T
[15] = target: T2, Ribosyldihydronicotinamide dehydrogenase [quinone] (Homo sapiens); assay: Binding affinity to HEK293T cells-derived His-tagged NQO2 expressed in Escherichia coli BL21(DE3) assessed as stoichiometric complex formation at 10 uM after 5 mins by electrospray ionization native mass spectrometry; conditions: HEK-293T
[16] = target: Adenosine kinase (Homo sapiens) (UniProt P55263); assay: Binding affinity to ADK in HEK293T cells at 50 uM incubated for 1 hr by mass spectrometry analysis relative to azide-PEG3-biotin; assay type: cell-based; conditions: HEK-293T
[17] = target: Deoxycytidine kinase (Homo sapiens) (UniProt P27707); assay: Binding affinity to DCK in HEK293T cells at 50 uM incubated for 1 hr by mass spectrometry analysis relative to azide-PEG3-biotin; assay type: cell-based; conditions: HEK-293T
[18] = target: T1, Acyl-protein thioesterase 2; assay: Binding affinity to HEK293T cells-derived His-tagged APT2 expressed in Escherichia coli BL21(DE3) assessed as stoichiometric complex formation at 10 uM after 5 mins by electrospray ionization native mass spectrometry; conditions: HEK-293T

| SMILES | pKi [1] | fold change (FC) [2] | fold change (FC) [3] | Activity [4] | fold change (FC) [5] | fold change (FC) [6] | Activity (MDCK) | fold change (FC) [7] | fold change (FC) [8] | fold change (FC) [9] | fold change (FC) [10] | pIC50 (Pyridoxal kinase) | Activity [11] | fold change (FC) [12] | pIC50 [13] | fold change (FC) [14] | Activity [15] | fold change (FC) [16] | fold change (FC) [17] | Activity [18] |
| --- | --- | --- | --- | --- | --- | --- | --- | --- | --- | --- | --- | --- | --- | --- | --- | --- | --- | --- | --- | --- |
| O=C(CCCC[C@@H]1SC[C@@H]2NC(=O)N[C@@H]21)NCCOCCOCCOCCn1cc(COc2ccccc2N2CCN(C(=O)c3cc4c(s3)-c3ccccc3S(=O)(=O)C4)CC2)nn1 | < 5.00 | 3 | 3 |  |  |  |  |  |  |  |  |  |  |  |  |  |  |  |  |  |
| O=C(CCCC[C@@H]1SC[C@@H]2NC(=O)N[C@@H]21)NCCOCCOCCOCCn1cc(COc2ccc(N3CCN(C(=O)c4cc5c(s4)-c4ccccc4S(=O)(=O)C5)CC3)cc2)nn1 | 5.96 | > 5 | > 5 | Active | > 5 | > 5 | Active | > 5 | > 5 | > 5 | > 5 | < 5.00 | Active | > 5 | < 5.00 | > 5 | Active | > 5 | > 5 | Active |
| [N-]=[N+]=NCCOCCOCCOCCNC(=O)CCCC[C@@H]1SC[C@@H]2NC(=O)N[C@@H]21 | < 5.00 |  |  |  |  |  |  |  |  |  |  |  |  |  |  |  |  |  |  |  |
| COc1ccc(N2CCN(C(=O)c3cc4c(s3)-c3ccccc3S(=O)(=O)C4)CC2)cc1 |  |  |  |  |  |  |  |  |  |  |  | < 5.00 | Active |  |  |  | Active |  |  | Active |
